{"source": "paper PMC4618636", "about": "(Pharmacology Research & Perspectives, 2015)", "key": {"CYP1A2 [1]": {"molecular_target": "T1, CYP1A2 (Homo sapiens, UniProt P05177)", "T1 sequence (P05177 1-516)": "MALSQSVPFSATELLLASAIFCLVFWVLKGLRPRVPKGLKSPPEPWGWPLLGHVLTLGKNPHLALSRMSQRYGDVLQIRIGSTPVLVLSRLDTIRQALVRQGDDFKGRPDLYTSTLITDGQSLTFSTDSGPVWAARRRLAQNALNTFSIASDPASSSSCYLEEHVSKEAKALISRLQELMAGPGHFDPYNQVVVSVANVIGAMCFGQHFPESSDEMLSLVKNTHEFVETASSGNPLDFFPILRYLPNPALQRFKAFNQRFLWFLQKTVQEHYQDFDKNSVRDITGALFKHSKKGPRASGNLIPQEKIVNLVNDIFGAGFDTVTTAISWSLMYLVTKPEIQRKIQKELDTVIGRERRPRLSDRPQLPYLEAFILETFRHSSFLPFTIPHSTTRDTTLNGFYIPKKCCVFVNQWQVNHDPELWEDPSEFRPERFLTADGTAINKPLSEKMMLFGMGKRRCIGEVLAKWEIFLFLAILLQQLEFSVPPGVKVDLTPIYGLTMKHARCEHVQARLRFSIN", "test": "CYP1A2 inhibition in upcyte hepatocytes over 24 h", "type": "in vitro ADME", "conditions": "probe phenacetin (5 μmol/L), percentage inhibition, CYP1A2, APAP, 1 mmol/L ABT, Lab 2"}, "CYP2C9": {"molecular_target": "CYP2C9 (Homo sapiens, UniProt P11712)", "sequence (P11712 whole entry)": "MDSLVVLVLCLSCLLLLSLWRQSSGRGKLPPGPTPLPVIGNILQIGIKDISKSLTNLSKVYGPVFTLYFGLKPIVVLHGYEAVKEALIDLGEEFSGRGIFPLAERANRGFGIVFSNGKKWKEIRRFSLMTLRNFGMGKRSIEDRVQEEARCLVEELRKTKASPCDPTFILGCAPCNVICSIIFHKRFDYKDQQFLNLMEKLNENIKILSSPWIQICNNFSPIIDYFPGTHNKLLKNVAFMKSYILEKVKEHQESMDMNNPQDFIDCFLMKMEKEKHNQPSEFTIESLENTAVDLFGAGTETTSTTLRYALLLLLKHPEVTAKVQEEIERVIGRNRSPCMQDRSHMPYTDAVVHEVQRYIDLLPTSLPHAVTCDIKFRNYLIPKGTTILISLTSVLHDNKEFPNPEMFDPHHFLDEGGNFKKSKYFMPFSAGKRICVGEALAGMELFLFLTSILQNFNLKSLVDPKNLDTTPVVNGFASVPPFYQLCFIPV", "test": "CYP2C9 inhibition in upcyte hepatocytes over 24 h", "type": "in vitro ADME", "conditions": "probe tolbutamide (5 μmol/L), percentage inhibition, CYP2C9, OH-Tolb, 1 mmol/L ABT, Lab 2"}, "CYP2B6 [2]": {"molecular_target": "T2, CYP2B6 (Homo sapiens, UniProt P20813)", "T2 sequence (P20813 1-491)": "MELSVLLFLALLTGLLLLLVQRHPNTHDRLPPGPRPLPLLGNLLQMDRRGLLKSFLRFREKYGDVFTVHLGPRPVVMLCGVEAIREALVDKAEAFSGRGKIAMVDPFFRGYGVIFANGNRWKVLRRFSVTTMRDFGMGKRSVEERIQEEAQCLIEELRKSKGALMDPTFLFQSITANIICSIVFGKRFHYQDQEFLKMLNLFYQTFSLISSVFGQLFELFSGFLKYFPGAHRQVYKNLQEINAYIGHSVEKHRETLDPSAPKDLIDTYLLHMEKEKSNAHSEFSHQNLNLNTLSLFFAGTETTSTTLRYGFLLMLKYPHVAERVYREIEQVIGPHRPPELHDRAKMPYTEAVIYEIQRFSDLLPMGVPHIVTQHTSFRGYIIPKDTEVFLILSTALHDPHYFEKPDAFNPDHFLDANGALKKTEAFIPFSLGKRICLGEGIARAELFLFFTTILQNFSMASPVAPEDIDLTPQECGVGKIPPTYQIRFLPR", "test": "in vitro", "conditions": "hepatocytes, percentage inhibition, CYP2B6, OH-Bup, 1 mmol/L ABT, Lab 2"}, "CYP3A4 [3]": {"molecular_target": "CYP3A4 (Homo sapiens, UniProt P08684)", "sequence (P08684 whole entry)": "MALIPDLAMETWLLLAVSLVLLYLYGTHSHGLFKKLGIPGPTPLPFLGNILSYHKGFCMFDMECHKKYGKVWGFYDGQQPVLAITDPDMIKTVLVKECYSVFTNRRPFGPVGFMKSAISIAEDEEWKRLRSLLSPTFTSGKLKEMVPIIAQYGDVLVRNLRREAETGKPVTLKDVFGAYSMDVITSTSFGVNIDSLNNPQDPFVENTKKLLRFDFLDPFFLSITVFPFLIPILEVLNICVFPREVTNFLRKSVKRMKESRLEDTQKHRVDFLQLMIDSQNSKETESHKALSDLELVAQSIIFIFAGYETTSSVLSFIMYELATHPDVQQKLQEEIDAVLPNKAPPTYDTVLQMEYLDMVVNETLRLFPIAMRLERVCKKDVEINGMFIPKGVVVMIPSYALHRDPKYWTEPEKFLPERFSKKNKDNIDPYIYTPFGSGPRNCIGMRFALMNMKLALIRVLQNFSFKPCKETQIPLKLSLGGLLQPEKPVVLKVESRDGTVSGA", "test": "in vitro", "conditions": "upcyte hepatocytes, probe midazolam (5 μmol/L), percentage inhibition, CYP3A4, 1′OH-MID +1′OH-MID-G, 1 mmol/L ABT, Lab 2"}, "CYP3A4 [4]": {"tested_on": "CYP3A4", "conditions": "for CYP3A4 % Rif: relative to positive control rifampicin, equation 2; for CYP3A4 Ind50: column headed Ind50 in Table 5; for CYP3A4 RIS: mean of two experiments"}, "CYP2B6 [5]": {"tested_on": "CYP2B6", "conditions": "for CYP2B6 Indmax: mean from two experiments; for CYP2B6 % PB: relative to positive control phenobarbital, equation 2"}, "CYP3A4 [6]": {"tested_on": "CYP3A4", "conditions": "in vivo induction value used for the RIS calibration; cited from earlier work"}, "CYP1A2 [7]": {"tested_on": "CYP1A2", "test": "CYP1A2 preinduction by omeprazole in upcyte hepatocytes", "conditions": "daily 100 μmol/L omeprazole for 3 days"}, "[8]": {"conditions": "upcyte Donor 10-03, mean from two experiments"}, "[9]": {"conditions": "upcyte Donor 151-03, mean from two experiments"}, "[10]": {"conditions": "upcyte Donor 653-03, mean from two experiments"}}, "note": "Values joined by “and” are separate entries in the source; they are usually repeats but may differ in a detail not shown here. Equal entries are not always repeated. Where two headings read alike, the source gives them in different places.", "data": [{"smiles": "Nn1nnc2ccccc21", "note": "[ABT, 1-aminobenzotriazole]", "values": [{"measurement": "inhibition at 1 mmol/L", "setting": "CYP1A2 [1]; Donor 151-03, 0–6 h", "result": 100, "unit": "%"}, {"measurement": "inhibition at 24 h, 1 mmol/L", "setting": "CYP1A2 [1]; Donor 151-03, 24 h", "result": 100, "unit": "%"}, {"measurement": "inhibition at 1 mmol/L", "setting": "CYP1A2 [1]; Donor 422A-03, 0–6 h", "result": 100, "unit": "%"}, {"measurement": "inhibition at 24 h, 1 mmol/L", "setting": "CYP1A2 [1]; Donor 422A-03, 24 h", "result": 98, "unit": "%"}, {"measurement": "inhibition at 1 mmol/L", "setting": "CYP1A2 [1]; Donor 653-03, 0–6 h", "result": 95, "unit": "%"}, {"measurement": "inhibition at 24 h, 1 mmol/L", "setting": "CYP1A2 [1]; Donor 653-03, 24 h", "result": 96, "unit": "%"}, {"measurement": "inhibition at 1 mmol/L", "setting": "CYP2C9; Donor 151-03, 0–6 h", "result": 100, "unit": "%"}, {"measurement": "inhibition at 24 h, 1 mmol/L", "setting": "CYP2C9; Donor 151-03, 24 h", "result": 98, "unit": "%"}, {"measurement": "inhibition at 1 mmol/L", "setting": "CYP2C9; Donor 422A-03, 0–6 h", "result": 100, "unit": "%"}, {"measurement": "inhibition at 24 h, 1 mmol/L", "setting": "CYP2C9; Donor 422A-03, 24 h", "result": 100, "unit": "%"}, {"measurement": "inhibition at 1 mmol/L", "setting": "CYP2C9; Donor 653-03, 0–6 h", "result": 95, "unit": "%"}, {"measurement": "inhibition at 24 h, 1 mmol/L", "setting": "CYP2C9; Donor 653-03, 24 h", "result": 99, "unit": "%"}, {"measurement": "inhibition at 1 mmol/L", "setting": "CYP2B6 [2]; Donor 151-03, 0–6 h", "result": 85, "unit": "%"}, {"measurement": "inhibition at 24 h, 1 mmol/L", "setting": "CYP2B6 [2]; Donor 151-03, 24 h", "result": 94, "unit": "%"}, {"measurement": "inhibition at 1 mmol/L", "setting": "CYP2B6 [2]; Donor 422A-03, 0–6 h", "result": 90, "unit": "%"}, {"measurement": "inhibition at 24 h, 1 mmol/L", "setting": "CYP2B6 [2]; Donor 422A-03, 24 h", "result": 94, "unit": "%"}, {"measurement": "inhibition at 1 mmol/L", "setting": "CYP2B6 [2]; Donor 653-03, 0–6 h", "result": 94, "unit": "%"}, {"measurement": "inhibition at 24 h, 1 mmol/L", "setting": "CYP2B6 [2]; Donor 653-03, 24 h", "result": 97, "unit": "%"}, {"measurement": "inhibition at 1 mmol/L", "setting": "CYP3A4 [3]; Donor 151-03, 0–6 h", "result": 99, "unit": "%"}, {"measurement": "inhibition at 24 h, 1 mmol/L", "setting": "CYP3A4 [3]; Donor 151-03, 24 h", "result": 97, "unit": "%"}, {"measurement": "inhibition at 1 mmol/L", "setting": "CYP3A4 [3]; Donor 422A-03, 0–6 h", "result": 98, "unit": "%"}, {"measurement": "inhibition at 24 h, 1 mmol/L", "setting": "CYP3A4 [3]; Donor 422A-03, 24 h", "result": 98, "unit": "%"}, {"measurement": "inhibition at 1 mmol/L", "setting": "CYP3A4 [3]; Donor 653-03, 0–6 h", "result": 98, "unit": "%"}, {"measurement": "inhibition at 24 h, 1 mmol/L", "setting": "CYP3A4 [3]; Donor 653-03, 24 h", "result": 98, "unit": "%"}]}, {"smiles": "COc1ccc2[nH]c([S+]([O-])Cc3ncc(C)c(OC)c3C)nc2c1", "note": "(centres unmarked) [Omeprazole, omeprazole]", "values": [{"measurement": "CYP3A4 Indmax", "setting": "CYP3A4 [4]; [8]", "result": 2.3, "unit": "fold"}, {"measurement": "CYP3A4 % Rif", "setting": "CYP3A4 [4]; upcyte Donor 10-03", "result": 4, "unit": "%"}, {"measurement": "CYP3A4 Indmax", "setting": "CYP3A4 [4]; [9]", "result": 3.1, "unit": "fold"}, {"measurement": "CYP3A4 % Rif", "setting": "CYP3A4 [4]; upcyte Donor 151-03", "result": 34, "unit": "%"}, {"measurement": "CYP3A4 Ind50", "setting": "CYP3A4 [4]; upcyte Donor 653-03", "result": 5}, {"measurement": "CYP3A4 Indmax", "setting": "CYP3A4 [4]; [10]", "result": 1.5, "unit": "fold"}, {"measurement": "CYP2B6 Indmax", "setting": "CYP2B6 [5]; upcyte Donor 10-03", "result": 2.0, "unit": "fold"}, {"measurement": "CYP2B6 % PB", "setting": "CYP2B6 [5]; upcyte Donor 10-03", "result": 31, "unit": "%"}, {"measurement": "CYP2B6 Indmax", "setting": "CYP2B6 [5]; upcyte Donor 151-03", "result": "No induction"}, {"measurement": "CYP2B6 % PB", "setting": "CYP2B6 [5]; upcyte Donor 151-03", "result": "No induction"}, {"measurement": "CYP2B6 Indmax", "setting": "CYP2B6 [5]; upcyte Donor 653-03", "result": 2.2, "unit": "fold"}, {"measurement": "CYP2B6 % PB", "setting": "CYP2B6 [5]; upcyte Donor 653-03", "result": 56, "unit": "%"}, {"measurement": "% Decrease in midazolam AUC", "setting": "CYP3A4 [6]", "result": 0, "unit": "%"}, {"measurement": "induced CYP1A2 activity", "setting": "CYP1A2 [7]; Donor 10-03", "result": "57.1 ± 17.1", "unit": "pmol/min/mg protein"}, {"measurement": "induced CYP1A2 activity", "setting": "CYP1A2 [7]; Donor 151-03", "result": "83.8 ± 21.7", "unit": "pmol/min/mg protein"}, {"measurement": "induced CYP1A2 activity", "setting": "CYP1A2 [7]; Donor 422A-03", "result": "205.0 ± 44.9", "unit": "pmol/min/mg protein"}]}, {"smiles": "CCC1(c2ccccc2)C(=O)NC(=O)NC1=O", "note": "[Phenobarbital, phenobarbital]", "values": [{"measurement": "CYP3A4 Indmax", "setting": "CYP3A4 [4]; [8]", "result": 23.3, "unit": "fold"}, {"measurement": "CYP3A4 RIS", "setting": "CYP3A4 [4]; upcyte Donor 10-03", "result": 0.685}, {"measurement": "CYP3A4 % Rif", "setting": "CYP3A4 [4]; upcyte Donor 10-03", "result": 74, "unit": "%"}, {"measurement": "CYP3A4 Indmax", "setting": "CYP3A4 [4]; upcyte Donor 10-03, values of two experiments", "result": "23.8 fold and 22.9 fold"}, {"measurement": "CYP3A4 Indmax", "setting": "CYP3A4 [4]; [9]", "result": 5.2, "unit": "fold"}, {"measurement": "CYP3A4 RIS", "setting": "CYP3A4 [4]; upcyte Donor 151-03", "result": 2.211}, {"measurement": "CYP3A4 % Rif", "setting": "CYP3A4 [4]; upcyte Donor 151-03", "result": 68, "unit": "%"}, {"measurement": "CYP3A4 Indmax", "setting": "CYP3A4 [4]; upcyte Donor 151-03, values of two experiments", "result": "5.5 fold and 5.0 fold"}, {"measurement": "CYP3A4 Indmax", "setting": "CYP3A4 [4]; upcyte Donor 422A-03, mean from two experiments", "result": 11.3, "unit": "fold"}, {"measurement": "CYP3A4 RIS", "setting": "CYP3A4 [4]; upcyte Donor 422A-03", "result": 1.727}, {"measurement": "CYP3A4 % Rif", "setting": "CYP3A4 [4]; upcyte Donor 422A-03", "result": 95, "unit": "%"}, {"measurement": "CYP3A4 Indmax", "setting": "CYP3A4 [4]; upcyte Donor 422A-03, values of two experiments", "result": "10.7 fold and 11.8 fold"}, {"measurement": "CYP3A4 Ind50", "setting": "CYP3A4 [4]; upcyte Donor 653-03", "result": 120}, {"measurement": "CYP3A4 Indmax", "setting": "CYP3A4 [4]; [10]", "result": 11.8, "unit": "fold"}, {"measurement": "CYP3A4 RIS", "setting": "CYP3A4 [4]; upcyte Donor 653-03", "result": 2.198}, {"measurement": "CYP3A4 Indmax", "setting": "CYP3A4 [4]; upcyte Donor 653-03, values of two experiments", "result": "13.0 fold and 10.5 fold"}, {"measurement": "CYP2B6 Indmax", "setting": "CYP2B6 [5]; upcyte Donor 10-03", "result": 3.9, "unit": "fold"}, {"measurement": "CYP2B6 % PB", "setting": "CYP2B6 [5]; upcyte Donor 10-03", "result": 100, "unit": "%"}, {"measurement": "CYP2B6 Indmax", "setting": "CYP2B6 [5]; upcyte Donor 151-03", "result": 2.9, "unit": "fold"}, {"measurement": "CYP2B6 % PB", "setting": "CYP2B6 [5]; upcyte Donor 151-03", "result": 100, "unit": "%"}, {"measurement": "CYP2B6 Indmax", "setting": "CYP2B6 [5]; upcyte Donor 422A-03", "result": 7.3, "unit": "fold"}, {"measurement": "CYP2B6 % PB", "setting": "CYP2B6 [5]; upcyte Donor 422A-03", "result": 100, "unit": "%"}, {"measurement": "CYP2B6 Indmax", "setting": "CYP2B6 [5]; upcyte Donor 653-03", "result": 3.1, "unit": "fold"}, {"measurement": "CYP2B6 % PB", "setting": "CYP2B6 [5]; upcyte Donor 653-03", "result": 100, "unit": "%"}, {"measurement": "% Decrease in midazolam AUC", "setting": "CYP3A4 [6]", "result": 70, "unit": "%"}]}]}
